The test system of this test is HSV-1 virion. The test can be described thus: Virion integrity assay (ultracentrifugation/gB Western blotting, electron microscopy). Also noted: species or system herpes simplex virus type 1. The conditions noted are these: 20 μg/mL with HSV-1 at 37 °C 1 h. The method, then: Figure 5 Protopolybia-MP III destroys the integrity of HSV-1 free virions. (A) Schematic diagram for studying the effect of Protopolybia-MP III on HSV-1 free virion infectivity. (B) Effects of Protopolybia-MP III on HSV-1 free virion infectivity at different temperatures. HSV-1 (MOI = 1) and 20 μg/mL Protopolybia-MP III or PBS were coincubated at 4 °C, 22 °C, and 37 °C for 1 h, and then Vero cells were infected as described in (A). After 24 h, cells were collected, and intracellular HSV-1 RNA was analyzed by qPCR. (C) Effects of different concentrations of Protopolybia-MP III on HSV-1 free virion infectivity. HSV-1 (MOI = 1) and 1 or 10 μg/mL Protopolybia-MP III or PBS were coincubated at 37 °C for 1 h, and then Vero cells were infected as described in (A). After 24 h, cells were collected, and intracellular HSV-1 RNA was analyzed by qPCR. (D,E) The effect of Protopolybia-MP III on HSV-1 free virion integrity. HSV-1 and 20 μg/mL Protopolybia-MP III or PBS were coincubated at 37 °C for 1 h. Then, after centrifuging for 2 h at 40,000 rpm at 4 °C, the contents of HSV-1 gB in the supernatant and precipitate were detected by Western blotting (D). In addition, the structure of HSV-1 virions after incubation with Protopolybia-MP III was observed by electron microscopy. The red arrow points to a destroyed HSV-1 virion. *** p < 0.001.
HSV-1 virions were coincubated with PBS or 20 μg/mL Protopolybia-MP III at 37 °C for 1 h. Then, the virions were separated by ultracentrifugation at 40,000 rpm at 4 °C for 2 h in a Beckman SW41 rotor (Beckman Coulter, Brea, CA, USA). The supernatant was collected and lyophilized using a vacuum freeze dryer (Labconco FreeZone6L, Kansas City, MO, USA). HSV-1 glycoprotein gB from both the precipitate and supernatant components were measured by Western blotting. In addition, after HSV-1 was coincubated with PBS or 20 μg/mL Protopolybia-MP III at 37 °C for 1 h, samples were placed on 200-mesh var/carbon-coated copper grids by dipping the grids into the virion sample solutions. […]

The mark [1] stands for this setting: ultracentrifugation 40,000 rpm 2 h 4 °C, Western blotting.

Ends that are not written are not given here.

In the case of “INWLKLGKAVIDAL-NH2 [Protopolybia-MP III]”, the “HSV-1 virion structure by electron microscopy” value (negative staining) is reported as “destroyed”. Under setting [1], the “gB content in the precipitate compared with PBS treatment” value is given as “significantly reduced” and the “gB content in the supernatant compared with PBS treatment” value is listed as “increased”.
